In publication PMC6678097, “Machilin A Inhibits Tumor Growth and Macrophage M2 Polarization Through the Reduction of Lactic Acid” (Cancers, 2019):

Experiments:
[1] = target: T1, purified recombinant LDHA (Homo sapiens, UniProt P00338); assay: In vitro LDH activity assay with purified recombinant LDHA; type: biochemical; settings: up to a concentration of 1 mM
T1 construct: made in house
Method: A purification of recombinant LDHA was performed as described previously. LDH activity was determined by measuring the decrease of absorbance at 340 nm due to the oxidation of NADH in 20 mM HEPES-K^+, 0.05% bovine serum albumin (BSA), 20 μM NADH, and 2 mM pyruvate (Sigma-Aldrich, St. Louis, MO, USA) at a pH of 7.2 using a spectrofluorometer (Spectramax M2, Molecular Devices, San Jose, CA, USA; excitation 340 nm; emission 460 nm), as described previously. Ten nanograms of recombinant LDHA protein were used in the in vitro LDH activity assay. One microgram of total protein from cell or tissue lysates was used for intracellular or in vivo LDH assays.

LDHA [2] = tested on: LDHA; set-up: method as in PMID 30850682; settings: through reducing its binding to substrate, pyruvate; cited from earlier work
[3] = target: T2, purified recombinant human LDHA (rhLDHA) (Homo sapiens, UniProt P00338); assay: NADH binding assay (LDHA binding to Cibacron Blue 3GA agarose); settings: machilin A 10 and 100 μM; NADH positive control
T2 construct: made in house
Method: An NADH binding assay was performed as described previously. The NADH binding ability of LDHA was determined by measuring the affinity of LDHA to agarose-immobilized Cibacron Blue 3GA, which resembles NADH. Then, 400 ng of purified recombinant human LDHA (rhLDHA) was incubated with NADH or MA, followed by incubation with 30 µL of Cibacron Blue agarose at 4 °C for 2 h. After a washing step with 20 mM Tris-HCl (pH 8.6), LDHA bound to beads was eluted in PBS using a sodium dodecyl sulfate (SDS) gel running buffer and was then subjected to–SDS-polyacrylamide gel electrophoresis (SDS-PAGE) and western blotting. Standardized amounts of protein were used in each reaction.

LDHA [4] = target: LDHA (Homo sapiens, UniProt P00338); assay: Isothermal titration calorimetry (ITC) of LDHA and NADH; set-up: Full-length LDHA (residues 1–331) was obtained from cDNA by polymerase chain reaction (PCR); inferred from pET-28a vector and Ni-NTA purification; made in house; host or cells: E. coli BL21 (DE3); settings: 25 °C, read-out: apparent KD of binding to LDHA
Method: compounds. The acquisition time was 1.704 sec, relaxation delay was 1.5 sec and 128 transient were collected. Lactate was quantified using Chenomx NMR Suite 7.1 professional with the Chenomx 600 MHz library database (Chenomx Inc., Edmonton, Alberta, Canada, ).
1.4. Isothermal Titration Calorimetry
Isothermal titration calorimetry (ITC) measurements were carried out using MicroCal auto_iTC200 (GE healthcare, Chicago, IL, USA) at 25 °C. The purified LDHA protein was dialyzed in buffer containing 50 mM Tris-HCl (pH 8.0) and 200 mM NaCl at a concentration of 0.1 mM. NADH was solubilized in the same buffer at concentrations of 1 to 2 mM. The NADH was titrated into the LDHA solution onto an ITC200 microcalorimeter cell. The raw data were integrated and normalized using MicroCal Origin 7.0 software (GE healthcare). The determined binding affinity (KA) and enthalpy changes (ΔH) values were used to calculate ΔS from the standard thermodynamic equation.
For generation of bone marrow-derived macrophage (BMDM), bone marrow cells were extracted from C57BL/6 mice by surgery, and treated with M-CSF (10ng/ml) for 7days. BMDM cells were incubated with the indicated concentration of culture media with MA and lactate or not. The cells were washed with phosphate buffered saline (PBS) and fixed in 3.7% formaldehyde in PBS for 1h. […]

Question: With OCc1ccc2c(c1)OCO2 [piperonyl alcohol, reference compound] as the molecule, how does the “effect on LDHA activity” value [1] read?
Answer: The value was “did not affect LDHA activity”.

Question: For FC(F)(F)c1ccc([Se]c2ccccc2)cc1 [PSTMB, 1-(phenylseleno)-4-(trifluoromethyl)benzene], which “effect on LDHA activity” value (LDHA [2]) is on record?
Answer: Its value is “inhibited LDHA activity”.

Question: With c1ccc2c(c1)OCO2 [1,3-benzodioxole, reference compound] as the molecule, how does the “effect on LDHA activity” value [1] read?
Answer: Its value is “did not affect LDHA activity”.

Question: Which results are given for NC(=O)C1=CN(C2OC(COP(=O)(O)OP(=O)(O)OCC3OC(n4cnc5c(N)ncnc54)C(O)C3O)C(O)C2O)C=CC1 (centres unmarked) [NADH, 1,4-dihydronicotinamide adenine dinucleotide, reference compound]?
Answer: LDHA binding to Cibacron Blue Agarose beads (NADH mimic) [3]: prohibited LDHA binding; Kd (LDHA [4]): 10 µM
